According to the NIST ThermoML archive (doi:10.1021/je050367p):

Columns and labels:
[1] = xn = mol fraction of the nth substance listed; settings: 100.8 kPa, Liquid; for viscosity: Capillary tube (Ostwald / Ubbelohde) method
[2] = refractive index (Na D-line) (dimensionless); xn = mol fraction of the nth substance listed; settings: 100.8 kPa, Liquid, Standard Abbe refractometry

CC(C)CC(C)(C)C [2,2,4-trimethylpentane] + CCO
Settings	mass density, 288.15 K [kg/m3]	mass density, 298.15 K [kg/m3]	mass density, 308.15 K [kg/m3]	refractive index, 288.15 K	refractive index, 298.15 K	refractive index, 308.15 K	viscosity, 288.15 K [mPa·s]	viscosity, 298.15 K [mPa·s]	viscosity, 308.15 K [mPa·s]
[1], x2 = 0	695.95	687.74	679.41	–	–	–	0.537	0.48	0.432
[1], x2 = 0.0502	697.2	688.84	680.36	–	–	–	0.532	0.473	0.424
[1], x2 = 0.1	698.76	690.33	681.76	–	–	–	0.535	0.476	0.426
[1], x2 = 0.15	700.55	692.11	683.52	–	–	–	0.542	0.48	0.429
[1], x2 = 0.2	702.53	694.07	685.43	–	–	–	0.551	0.487	0.434
[1], x2 = 0.25	704.71	696.21	687.56	–	–	–	0.564	0.497	0.441
[1], x2 = 0.3	707.1	698.57	689.88	–	–	–	0.58	0.51	0.451
[1], x2 = 0.35	709.71	701.17	692.45	–	–	–	0.601	0.526	0.462
[1], x2 = 0.4	712.6	704.03	695.3	–	–	–	0.625	0.543	0.476
[1], x2 = 0.45	715.8	707.2	698.44	–	–	–	0.652	0.565	0.492
[1], x2 = 0.5	719.31	710.68	701.91	–	–	–	0.682	0.588	0.51
[1], x2 = 0.55	723.22	714.59	705.8	–	–	–	0.718	0.615	0.531
[1], x2 = 0.6	727.55	718.9	710.11	–	–	–	0.755	0.645	0.554
[1], x2 = 0.65	732.37	723.73	714.93	–	–	–	0.797	0.677	0.58
[1], x2 = 0.7	737.81	729.14	720.34	–	–	–	0.843	0.715	0.609
[1], x2 = 0.75	743.99	735.34	726.54	–	–	–	0.894	0.755	0.642
[1], x2 = 0.8	751.11	742.37	733.58	–	–	–	0.952	0.801	0.678
[1], x2 = 0.85	759.27	750.54	741.75	–	–	–	1.018	0.854	0.72
[1], x2 = 0.9	768.81	760.17	751.44	–	–	–	1.095	0.915	0.769
[1], x2 = 0.95	780.26	771.59	762.84	–	–	–	1.19	0.991	0.828
[2], x2 = 0	–	–	–	1.39404	1.389	1.38395	–	–	–
[2], x2 = 0.0502	–	–	–	1.39319	1.3881	1.38297	–	–	–
[2], x2 = 0.1	–	–	–	1.39241	1.3873	1.38217	–	–	–
[2], x2 = 0.15	–	–	–	1.39162	1.38651	1.38138	–	–	–
[2], x2 = 0.2	–	–	–	1.39081	1.38569	1.38056	–	–	–
[2], x2 = 0.25	–	–	–	1.38996	1.38485	1.37972	–	–	–
[2], x2 = 0.3	–	–	–	1.38907	1.38397	1.37885	–	–	–
[2], x2 = 0.35	–	–	–	1.38811	1.38304	1.37794	–	–	–
[2], x2 = 0.4	–	–	–	1.38709	1.38204	1.37696	–	–	–
[2], x2 = 0.45	–	–	–	1.38597	1.38099	1.37593	–	–	–
[2], x2 = 0.5	–	–	–	1.38479	1.37984	1.3748	–	–	–
[2], x2 = 0.55	–	–	–	1.3835	1.37858	1.37358	–	–	–
[2], x2 = 0.6	–	–	–	1.38209	1.37722	1.37227	–	–	–
[2], x2 = 0.65	–	–	–	1.38055	1.37573	1.37083	–	–	–
[2], x2 = 0.7	–	–	–	1.37884	1.37408	1.36922	–	–	–
[2], x2 = 0.75	–	–	–	1.37694	1.37225	1.36745	–	–	–
[2], x2 = 0.8	–	–	–	1.37484	1.3702	1.3655	–	–	–
[2], x2 = 0.85	–	–	–	1.37249	1.36792	1.3633	–	–	–
[2], x2 = 0.9	–	–	–	1.36984	1.36536	1.36085	–	–	–
[2], x2 = 0.95	–	–	–	1.36684	1.36248	1.35812	–	–	–
